In PMC11323243, “Novel Inhibitors of SARS-CoV-2 RNA Identified through Virtual Screening” (Journal of Chemical Information and Modeling, 2024):
“Also recorded” adds a separate entry of the source.

Assays:
[1] = Cell viability (MTT) after 3 days of exposure; format: cell-based; conditions: African green monkey, Vero E6 cells, read-out: CC50, concentration reducing cell viability by 50%
[2] = system: Omicron (BA.1) SARS-CoV-2; assay: Antiviral activity, plaque reduction assay on Vero E6 cells; format: cell-based; conditions: CC50/EC50, Vero E6 cells
[3] = system: −1PRF element of SARS-CoV-2; assay: Dual-luciferase assay measuring frameshift efficiency; format: cell-based; conditions: Vero E6 cells; for effect on frameshift efficiency (in words): dual-luciferase assay; for reduction of frameshift efficiency: single nontoxic dose
[4] = system: −1PRF element of SARS-CoV-2; conditions: previously identified; cited from earlier work

Compound | CC50 at 3 days [1] | SI, selective index [2] | effect on frameshift efficiency (in words) [3] | also measured
NCCc1ccc(CN2CCC(O)(c3cccc(C(F)(F)F)c3)CC2)cc1 [Compound 188] | 80.6 µM | 4.69 | – | –
Cc1cc2c(cc1CN1CC(CO)C(CN3CCCCCC3)C1)OCCO2 (centres unmarked) [Compound 194] | > 100 µM | >3.46 | significant reduction in frameshift efficiency | reduction of frameshift efficiency [3]: 23%
OC1CN(Cc2cccc3cc[nH]c23)CCN(c2ccncc2)C1 (centres unmarked) [Compound 229] | 93 µM | 3.47 | – | –
OCC1CN(Cc2cc3c(cc2Cl)OCO3)CC1CN1CCCCCC1 (centres unmarked) [Compound 269] | – | – | nonsignificant reduction of frameshift efficiency; also recorded: reduction in frameshift, though not statistically significant | –
Cc1cc2c(cc1CN1CC(CO)C(CN3CCN(C)CC3)C1)OCCO2 (centres unmarked) [Compound 782] | – | – | significant and improved reduction of frameshift efficiency compared to 194; also recorded: dose-dependent | reduction of frameshift efficiency [3]: 38%
OC1CCCN(C2CCN(Cc3ncc[nH]3)CC2)C1 (centres unmarked) [Compound 21256088] | > 100 µM | – | – | –
Cc1nc(CN)cc(N2CCC(C(O)c3nccn3C)CC2)n1 (centres unmarked) [Compound 32807865] | > 100 µM | – | – | –
CN[C@@H]1[C@@H](O)[C@@H](O[C@@H]2[C@@H](O)[C@H](O[C@H]3O[C@H]([C@@H](C)O)[C@@H](O)[C@H](O)[C@H]3N)[C@@H](N)C[C@H]2N)OC[C@]1(C)O [geneticin] | – | – | – | inhibition of the −1PRF of SARS-CoV-2 (in words) [4]: specific inhibition of the −1PRF of SARS-CoV-2
CCNCC1CCN(c2c(F)cc3c(=O)c(C(=O)O)cn(CC)c3c2F)C1 (centres unmarked) [merafloxacin] | – | – | – | inhibition of the −1PRF of SARS-CoV-2 (in words) [4]: specific inhibition of the −1PRF of SARS-CoV-2
Clc1ccc2c(N3CCN(CCCN4CCN(c5ccnc6cc(Cl)ccc56)CC4)CC3)ccnc2c1 [piperaquine, reference compound] | 5.66 µM | 0.49 | – | –
